Laboratory results published in patent US4663327A, “1-heteroaryl-4-aryl-pyrazolin-5-ones” (priority 1984, dated 1987).
Converted amounts (≈) assume the structure as drawn.

Columns and labels:
Aureobasidium pullulans = assay: MIC on fungi in agar; details: 336 h
Protocol: (§1) After storage for 2 weeks at 28° C. and 60 to 70% relative atmospheric humidity, the MIC is determined.

Lentinus tigrinus = assay: MIC on fungi in agar; details: 336 h
Protocol: as §1

Sclerophoma pityophila = assay: MIC on fungi in agar; details: Sydowia polyspora, 336 h
Protocol: as §1

Chaetomium globosum = assay: MIC on fungi in agar; details: 336 h
Protocol: as §1

Aspergillus niger = assay: MIC on fungi in agar; details: 336 h
Protocol: as §1

Trichoderma viride = assay: MIC on fungi in agar; details: 336 h
Protocol: as §1

Alternaria tenuis = assay: MIC on fungi in agar; details: Alternaria alternata, 336 h
Protocol: as §1

slime organisms = assay: Action against slime organisms in Allen's nutrient solution (MIC); details: 504 h
Protocol: Substances according to the invention, dissolved in a small amount of acetone, are used in concentrations of, in each case, 0.1 to 100 mg/l in Allen's nutrient solution (Arch. Mikrobiol. 17, 34 to 53 (1952)), which contains, in 4 l of sterile water, 0.2 g of ammonium chloride, 4.0 g of sodium nitrate, 1.0 g of dipotassium hydrogen phosphate, 0.2 g of calcium chloride, 2.05 g of magnesium sulphate, 0.02 g of iron chloride and 1% of caprolactam. Shortly beforehand, the nutrient solution is infected with slime organisms (approx. 10^6 organisms/ml) which have been isolated from the spinning water circulations used in the manufacture of polyamide.

Penicillium glaucum = assay: MIC on fungi in agar; details: 336 h
Protocol: as §1

Polyporus versicolor = assay: MIC on fungi in agar; details: Trametes versicolor, 336 h
Protocol: as §1

Coniophora puteana = assay: MIC on fungi in agar; details: 336 h
Protocol: as §1

Pyricularia oryzae [1] = format: in vivo; details: rice, soil watered 7 days before inoculation, disease infestation 4 days after inoculation
Botrytis cinerea = assay: Botrytis test (BEAN)/protective; format: in vivo; details: sprayed, infected spots on leaves evaluated 3 days after inoculation
Protocol: Botrytis test (BEAN)/protective Solvent: 4.7 parts by weight of acetone Emulsifier: 0.3 parts by weight alkyl aryl polyglycol ether To produce a suitable preparation of active compound, 1 pat by weight of active compound is mixed with the stated amounts of solvent and emulsifier, and the concentrate is diluted with water to the desired concentration. To test for protective activity, young plants are sprayed with the preparation of active compound until dripping wet. After the spray coating has dried on, 2 small pieces of agar covered with Botrytis cinerea are placed on each leaf. The inoculated plants are placed in a darkened humidity chamber at 20° C. 3 days after the inoculation, the size of the infected spots on the leaves is evaluated.

Pyricularia oryzae [2] = format: in vivo; details: rice, sprayed, disease infestation 4 days after inoculation
Phytophthora infestans = format: in vivo; details: tomato, sprayed, evaluation 3 days after inoculation
Leptosphaeria nodorum = Leptosphaeria nodorum test (wheat)/protective; format: in vivo; details: sprayed, evaluation 10 days after inoculation
Protocol: Leptosphaeria nodorum test (wheat)/protective Solvent: 100 parts by weight of dimethylformamide Emulsifier: 0.25 parts by weight of alkylaryl polyglycol ether To produce a suitable preparation of active compound, 1 part by weight of active compound is mixed with the stated amounts of solvent and emulsifier, and the concentrate is diluted with water to the desired concentration. To test for protective activity, young plants are sprayed with the preparation of active compound until dew-moist. After the spray coating has dried on, the plants are sprayed with a conidia suspension of Leptosphaeria nodorum. The plants remain for 48 hours in an incubation cabinet at 20° C. and 100% relative atmospheric humidity. The plants are placed in a greenhouse at a temperature of about 15° C. and a relative atmospheric humidity of about 80%. Evaluation is effected 10 days after the inoculation.

Cochliobolus sativus = Cochliobolus sativus test (barley)/protective; format: in vivo; details: sprayed, evaluation 7 days after inoculation
Protocol: Cochliobolus sativus test (barley)/protective Solvent: 100 parts by weight of dimethylformamide Emulsifier: 0.25 parts by weight of alkylaryl polyglycol ether To produce a suitable preparation of active compound, 1 part by weight of active compound is mixed with the stated amounts of solvent and emulsifier, and the concentrate is diluted with water to the desired concentration. To test for protective activity, young plants are sprayed with the preparation of active compound until dew-moist. After the spray coating has dried on, the plants are sprayed with a conidia suspension of Cochliobolus sativus. The plants remain in an incubation cabinet for 48 hours at 20° C. and 100% relative atmospheric humidity. The plants are placed in a greenhouse at a temperature of about 20° C. and a relative atmospheric humidity of about 80%. Evaluation is carried out 7 days after the inoculation.

Drechslera graminea = Drechslera graminea test (barley)/seed treatment; format: in vivo, Drechslera graminea (syn. Helminthosporium gramineum); details: seed dry dressing, about 3 weeks after sowing
Protocol: Drechslera […] (barley)/seed treatment (syn. Helminthosporium gramineum) The active compounds are used as dry dressings. These are prepared by extending the paticular active compound with a ground mineral to give a finely pulverulent mixture, which ensures uniform distribution on the seed surface. To apply the dressing, the infected seed is shaken with the dressing in a closed glass flask for 3 minutes. The seed is embedded in sieved, moist standard soil and is exposed to a temperature of 4° C. in closed Petri dishes in a refrigerator for 10 days. Germination of the barley, and possibly also of the fungus spores, is thereby initiated. 2 batches of 50 grains of the pregerminated barley are subsequently sown 3 cm deep in standard soil and are cultivated in a greenhouse at a temperature of about 18° C., in seedboxes which are exposed to light for 15 hours daily. About 3 weeks after sowing, the plants are evaluated for symptons of stripe disease.

| SMILES | MIC (Aureobasidium pullulans) [µg/mL] | MIC (Lentinus tigrinus) [µg/mL] | MIC (Sclerophoma pityophila) [µg/mL] | MIC (Chaetomium globosum) [µg/mL] | MIC (Aspergillus niger) [µg/mL] | MIC (Trichoderma viride) [µg/mL] | MIC (Alternaria tenuis) [µg/mL] | MIC (slime organisms) [µg/mL] | MIC (Penicillium glaucum) [µg/mL] | MIC (Polyporus versicolor) [µg/mL] | MIC (Coniophora puteana) [µg/mL] | systemic activity (Pyricularia oryzae [1]) | protective activity (Botrytis cinerea) | protective activity (Pyricularia oryzae [2]) | protective activity (Phytophthora infestans) | protective activity (Leptosphaeria nodorum) | protective activity (Cochliobolus sativus) | activity, symptoms of stripe disease (Drechslera graminea) |
| --- | --- | --- | --- | --- | --- | --- | --- | --- | --- | --- | --- | --- | --- | --- | --- | --- | --- | --- |
| Cc1ccc(-c2c[nH]n(-c3ccccn3)c2=O)cc1 [Example 23] | 50 (≈ 199 µM) | 75 (≈ 298 µM) | 20 (≈ 79.6 µM) | 0.5 (≈ 1.99 µM) | 7.5 (≈ 29.8 µM) | 1000 (≈ 3980 µM) | 75 (≈ 298 µM) | 7.5 (≈ 29.8 µM) | 5 (≈ 19.9 µM) | 3.5 (≈ 13.9 µM) | 35 (≈ 139 µM) |  |  |  |  |  |  |  |
| O=c1c(-c2cc(C(F)(F)F)ccc2Cl)c[nH]n1-c1ncccn1 [Example 102] |  |  |  |  |  |  |  |  |  |  |  | clearly superior activity compared with the prior art | clearly superior activity compared with the prior art | clearly superior activity compared with the prior art | clearly superior activity compared with the prior art |  |  |  |
| O=c1c(-c2ccc(F)cc2)c[nH]n1-c1ncccn1 [Example 83] | 50 (≈ 195 µM) | 50 (≈ 195 µM) | 5 (≈ 19.5 µM) | 3.5 (≈ 13.7 µM) | 15 (≈ 58.5 µM) | 75 (≈ 293 µM) | 50 (≈ 195 µM) | 35 (≈ 137 µM) | 20 (≈ 78.1 µM) | 35 (≈ 137 µM) | 5 (≈ 19.5 µM) |  |  |  |  |  |  |  |
| O=c1c(-c2ccc(SC(F)(F)F)cc2)c[nH]n1-c1ncccn1 [Example 94] |  |  |  |  |  |  |  |  |  |  |  | clearly superior activity compared with the prior art | clearly superior activity compared with the prior art |  |  |  |  |  |
| O=c1c(-c2ccccc2)c[nH]n1-c1ccccn1 [Example 4, 1-pyrid-2-yl-4-phenyl-pyrazolin-5-one] | 100 (≈ 421 µM) | 75 (≈ 316 µM) | 10 (≈ 42.1 µM) | 1.5 (≈ 6.32 µM) | 7.5 (≈ 31.6 µM) | 200 (≈ 843 µM) | 50 (≈ 211 µM) | 15 (≈ 63.2 µM) | 10 (≈ 42.1 µM) | 35 (≈ 148 µM) | 5 (≈ 21.1 µM) |  |  |  |  |  |  |  |
| Cc1cccc(-c2c[nH]n(-c3ncccn3)c2=O)c1 [Example 97] | 50 (≈ 198 µM) | 10 (≈ 39.6 µM) | 20 (≈ 79.3 µM) | 1 (≈ 3.96 µM) | 10 (≈ 39.6 µM) | 75 (≈ 297 µM) | 50 (≈ 198 µM) |  | 10 (≈ 39.6 µM) | 5 (≈ 19.8 µM) | 2 (≈ 7.93 µM) | clearly superior activity compared with the prior art |  |  |  |  |  |  |
| O=c1c(-c2ccc(OC(F)(F)F)cc2)c[nH]n1-c1ccccn1 [Example 18] |  |  |  |  |  |  |  |  |  |  |  | clearly superior activity compared with the prior art |  |  |  | clearly superior activity compared with the prior art | clearly superior activity compared with the prior art |  |
| Cc1ccccc1-c1c[nH]n(-c2ccccn2)c1=O [Example 21] | 35 (≈ 139 µM) | 50 (≈ 199 µM) | 35 (≈ 139 µM) | 0.75 (≈ 2.98 µM) | 7.5 (≈ 29.8 µM) | 50 (≈ 199 µM) | 10 (≈ 39.8 µM) |  | 7.5 (≈ 29.8 µM) | 7.5 (≈ 29.8 µM) | 5 (≈ 19.9 µM) | clearly superior activity compared with the prior art | clearly superior activity compared with the prior art |  |  |  | clearly superior activity compared with the prior art | clearly superior activity compared with the prior art |
| O=c1c(-c2cccc3ccccc23)c[nH]n1-c1ncccn1 [Example 105] |  |  |  |  |  |  |  |  |  |  |  | clearly superior activity compared with the prior art |  | clearly superior activity compared with the prior art | clearly superior activity compared with the prior art |  |  |  |
